Marks after values point to notes of the source that are not given here.
Tests used:
[1] = tested on: HIV-1 Tat (rTat, AA 1-72 variants); assay: Anti-Tat serum antibody titer (ELISA on rTat) after immunization of mice; type: in vivo, mouse; settings: for Titer, GMT: mice, 1.0 mg/mouse IP; for 4 week anti-Tat titer GMT: Mouse
Procedure: (§1) Immunogens prepared as described in Example 1 were taken up in buffered saline and injected IP in mice and rats, and SC in rabbits. Unless otherwise stated mice were immunized IP with 1 mg of Immunogen at Day 0 and Week 2 and serums were obtained at Week 4 for titration. Other regimens and species were as noted in the figures.
(§2) Serums were assayed to determine anti-Tat titers by conventional ELISA methods. Briefly, Maxisorp Immuno plates were coated with 2 ng/well rTat and incubated at 22° C. for 1 hour or 4° C. overnight. After thorough washing with 0.1% triton X 100 buffer, blocking with 1% bovine serum albumin (BSA) and rewashing, serum dilutions were applied and incubated at 22° C. for 1 hour. After incubation, the plates were thoroughly washed with triton-X 100 buffer again and 1/10,000 goat anti-mouse IgG-horseradish peroxidase (HRP) conjugate (or the appropriate reagent for rat or rabbit) was applied. The plates were then incubated for 1 hour at 22° C. then washed thoroughly and developed with ABTS for 45 minutes at room temperature on a shaker table. Absorbance was measured at 405 nm. Control wells lacking serum were measured and the titration endpoint was the reciprocal of the […] dilution with an OD greater than mean+8 SDs.
(§3) Animals were purchased from Harlan Laboratories and acclimated at Molecular Diagnostic Services, Inc., for at least one week before immunization. Both BALBc and C57BL6/BALBc F1 mice were used. Lewis rats were used as indicated. Immunogens prepared as described in Example 1 were taken up in buffered saline and injected IP in mice and rats, and administered subcutaneously in Cynomolgous macaque. Animals were immunized with immunogen at Day 0 and Week 2 (day 14) and serums were obtained at Week 4 (day 28) for titration. Doses/animal are noted in Table 4, along with their anti-Tat titers.
Animals were purchased from Harlan Laboratories and acclimated at Molecular Diagnostic Services, Inc., for at least one week before immunization. Both BALBc and C57BL6/BALBc F1 mice were used. Pam2C-capped immunogens prepared as described in Example 1 were taken up in buffered saline and injected IP. Mice were immunized with 3 injections of 1.0 mg/mouse Pam2C-capped immunogen with titrations before first boost and 2 weeks after each boost according to Table 5.

[2] = tested on: HIV-1 Tat (rTat, AA 1-72 variants); assay: Anti-Tat serum antibody titer (ELISA on rTat) after immunization of rats; type: in vivo, rat; settings: for GMT: rats, week 5, against rTat REK, FIG. 11; for 4 week anti-Tat titer GMT: Rat
Procedure: as §1, §2, §3
Three rats per group were immunized with a different dosage per group of a mixture of all of the experimental immunogens encompassed by the formula Pam3[…] -S-V-D-P-(R/K/N/S)-L-(E/D)-P-W-(K/N)-H-P-G-S-amide (SEQ ID NO: 63); Tat amino acid residue 7, 9, and 12 “wobbles”) with a polar charged sequence flanked by the linkers of the Pam3C (i.e., -S-K-K-K-K-S-). This immunogen is referred to as “TUTI-K4”. Each rat was administered a dose of either 0.1 mg TUTI-K4, or 1 mg TUTI-K4 or 10 mgs TUTI-K4 at day 0. Each rat was boosted with the same dose at week 3. The serum antibody titers for each rat were measured against the full length recombinant Tat (AA 1-72) REK variant protein.

[3] = tested on: full length recombinant Tat; assay: Tat depletion assay (rat immune serum on Protein A beads, sandwich ELISA); type: binding, HIV-1; settings: said to be associated with the week 5 titers at all doses (0.1, 1, 10 mg)
Procedure: Classical techniques to measure Tat depletion could not be used due to the lack of a membrane that retained antibody but permitted rTat diffusion. Briefly, this assay employs beads coated with antibody which are exposed to rTat and incubated. The antibody binds the Tat, depending upon the amount of Tat in solution. This assay thus measures how well the antibodies in the serum deplete the quantity of full length recombinant Tat.
Control: Normal rat serum not-immunized with HIV-1 Tat B cell epitopes (10% or 1%) was bound to Protein A beads and washed.
Samples: IgG of 10% and 1% serum of the immunized rat were bound to Protein A beads and washed. Undiluted serum has an anti-Tat titer of 1,000,000, as determined according to the method described in Example 3.
Both the Protein A beads of control and of samples were then incubated at room temperature for 30 minutes with a rTat solution. After centrifugation, the levels of Tat in supernatant were measured with a sandwich ELISA. The free Tat after exposure to 10% or 1% immune serum protein A coated beads was expressed as a percentage of the free Tat after exposure to 10% or 1% normal […] serum protein A coated beads, respectively.

HIV-1 Tat (rTat) = assay: Anti-Tat serum antibody titer (ELISA on rTat) after immunization of Cynomolgous macaque; type: in vivo; settings: 10.0 mg/animal subcutaneously at Day 0 and Week 2
Procedure: as §2
as §3, with “Animals were immunized with immunogen at Day 0 and Week 2 (day 14) and serums were obtained at Week 4 (day 28) for titration. Doses/animal are noted in Table 4, along with their anti-Tat titers.” left out

[4] = Toxicity of immunogen dose in mice; type: in vivo; settings: Mouse; 10.0 mg/animal (400 mg/kg)
Source text: as §3

[5] = 1.0 mg/animal IP at Day 0 and Week 2

For “Pam2C-SSQYIKANSKFIGITELSVDP-(R/K/N/S)-L-(E/D)-P-W-(K/N)-H-P-G-S-amide [Pam2-QYIK-TEP1]”, the “Titer, GMT” value ([1]; prime boost D0, W2, W4, bleed week 2) was 140,000, the “Titer, GMT” value ([1]; prime boost D0, W2, W4, bleed week 4) was 950,000 and the “Titer, GMT” value ([1]; prime boost D0, W2, W4, bleed week 6) was 750,000. The “Titer, GMT” value ([1]; prime boost D0, W3, W6, bleed week 3) was 160,000, the “Titer, GMT” value ([1]; prime boost D0, W3, W6, bleed week 5) was 930,000 and the “Titer, GMT” value ([1]; prime boost D0, W3, W6, bleed week 8) was 3,300,000. For the same substance, the “Titer, GMT” value ([1]; prime boost D0, W4, W8, bleed week 4) was 70,000, the “Titer, GMT” value ([1]; prime boost D0, W4, W8, bleed week 6) was 400,000 and the “Titer, GMT” value ([1]; prime boost D0, W4, W8, bleed week 10) was 3,000,000.
With “Pam3C-SKKKKSQYIKANSKFIGITEL -S-V-D-P-(R/K/N/S)-L-(E/D)-P-W-(K/N)-H-P-G-S-amide [TUTI-K4]” the GMT ([2]; 0.1 mg at day 0 and week 3) was “about 500,000”, the GMT ([2]; 1 mg at day 0 and week 3) was “about 1,000,000” and the GMT ([2]; 10 mg at day 0 and week 3) was “about 1,000,000”. For the same substance, the “reduction of free Tat levels” value [3] was “greater than 99%”.
For “Pam3C-SSQYIKANSKFIGITELSVDP-(R/K/N/S)-L-(E/D)-P-W-(K/N)-H-P-G-S-amide [Pam3-QYIK-TEP1]”, the “4 week anti-Tat titer GMT” value [1, 5] was 120,000*, the “4 week anti-Tat titer GMT” value ([1]; 3.0 mg/animal IP at Day 0 and Week 2) was 220,000 and the “geometric mean antibody titers in serum” value ([1]; single mouse, on all eight rTat (AA 1-72) immunodominant epitope variants, FIG. 2) was > 100,000. For the same substance, the “4 week anti-Tat titer GMT” value [2, 5] was 170,000, the “4 week anti-Tat titer GMT” value ([2]; 10.0 mg/animal IP at Day 0 and Week 2) was 460,000 and the “antibody titers (GMT) in serum” value ([2]; single rat, prime day 0, boosts at 3 and 6 weeks, bleed at 8 weeks, on all eight rTat (AA1-72) variants, FIG. 9) was > 1,000,000. For the same substance, the “4 week anti-Tat titer GMT” value (HIV-1 Tat (rTat)) was 900,000 and the toxicity [4] was “Lethal**”.

— patent publication US7943140B2, “Compositions and methods for the treatment and prophylaxis of multiple strains and subtypes of HIV-1” (priority 2006, dated 2011)
